Assay results reported in patent US10005801B2 (priority 2016, dated 2018).
Several values for one entry are separate records, joined by “and”; a condition that tells them apart may be missing. Identical values can stand only once. Entries after “also recorded” stand apart in the source; their conditions may differ. Like-named read-outs stand apart in the source and are kept apart here.

Assays:
[1] = tested on: H9c2 cardiomyoblasts; test: Anoxia/reoxygenation (A/R)-induced cellular injury, CCK-8 cell viability; type: cell-based; details: for protection against A/R-induced cellular damage (cell viability): H9c2, 12, 25 and 50 μM for 1 h during anoxia, then reoxygenation
Procedure: FIG. 3B. […] During anoxia various concentrations of JK-1 and JK-2 were added into medium and incubated for 1 h, respectively. Then the cells underwent a reoxygenation process. After the treatments, the CCK-8 assay was performed to detect cell viability. Data was expressed as the mean±SEM. **P<0.01 vs the control group, #P<0.05, ##P<0.01 vs A/R alone group.
The cell counting kit (CCK)-8 was applied to measure the cell viability of HeLa cells cultured in 96-well plates. After the indicated cell treatment, 100 μL of CCK-8 solution at 1:10 dilution was added to each well and cells were incubated for a further 3 h at 37° C. Absorbance was measured at 450 nm with a microplate reader. The mean optical density (OD) of 4 wells in each group was used to calculate cell viability as follows: (experiments were performed in triplicate)
The effect of H2S as a cardioprotective agent against myocardial ischemia reperfusion (MI/R) injury is known in the art. The mechanisms include reducing oxidative stress, preserving mitochondrial function, decreasing myocardial inflammation, and improving angiogenesis. […] To establish the cellular model of MI/R injury, H9c2 cardiomyoblasts were exposed to anoxia/reoxygenation (A/R) treatment, together with increasing concentrations of H2O2 (100-400 μM). […] Since the median lethal concentration of H2O2 in H9c2 cells was approximately 400 μM, this concentration was used for our studies.
The protective effects of the disclosed compounds against A/R-induced cellular damage was examined. In these experiments, H9c2 cells were pretreated with JK-1 or JK-2 at various concentrations (12, 25 and 50 μM) for 1 h during anoxia. Cells then underwent a reoxygenation process, after which cell viability was analyzed.

[2] = type: physicochemical; details: for H2S release under weak acidic pH: pH 5 and 6, PBS buffer; for H2S release under neutral and weak basic pH: pH 7.4 and 8, PBS buffer
[3] = tested on: HeLa cells; test: H2S production in cells, WSP-5 fluorescent probe imaging; type: cell-based; details: 200 μM donor, 1 h
[4] = tested on: myocardial ischemia/reperfusion (MI/R) injury; set-up: species or system mice; details: mouse, in vivo
[5] = tested on: TAC-induced heart failure; test: Transverse aortic constriction (TAC) heart failure model, echocardiography; type: in vivo, C57BL6/J mice; details: 100 μg/kg once daily i.p. from 3 weeks post-TAC, 14 weeks
Procedure: FIG. 7. Left ventricular dimensions at end-diastole (LVEDD) and at end-systole in millimeters (mm) at baseline and following heart failure in C57BL6/J mice. Mice were subjected to transverse aortic constriction (TAC) surgery to induce pressure overload hypertrophy and heart failure with reduced ejection fraction. LVEDD and LVESD were measured using high-resolution echocardiography at baseline and every 2 weeks thereafter for a period of 14 weeks. The H2S donor, (JK1) was administered starting at 3 weeks post-TAC at a dose of 100 μg/kg administered once daily via intraperitoneal injection. […] Following heart failure the heart dilates and this adverse remodeling response contributes to reduced cardiac function.
FIG. 8. Interventricular septum thickness measured at end-diastole (IVSd) and at end-systole (IVSs) in millimeters (mm) at baseline and following heart failure in C57BL6/J mice. Mice were subjected to transverse aortic constriction (TAC) surgery to induce pressure overload hypertrophy and heart failure with reduced ejection fraction. IVSd and IVSs were measured using high-resolution echocardiography at baseline and every 2 weeks thereafter for a period of 14 weeks. The H2S donor, (JK1) was administered starting at 3 weeks post-TAC at a dose of 100 μg/kg administered once daily via intraperitoneal injection. […] Myocardial wall thinning is a significant pathological component of heart failure.
(§1) FIG. 9. Left ventricular (LV) posterior wall thickness (PW) measured at end-diastole (d) and at end-systole (s) in millimeters (mm) at baseline and following heart failure in C57BL6/J mice. Mice were subjected to transverse aortic constriction (TAC) surgery to induce pressure overload hypertrophy and heart failure with reduced ejection fraction LVPWd and LVPWs were measured using high-resolution echocardiography at baseline and every 2 weeks thereafter for a period of 14 weeks. The H2S donor, (JK1) was administered starting at 3 weeks post-TAC at a dose of 100 μg/kg administered once daily via intraperitoneal injection.
as §1, with “10.” for “9.”, “ejection fraction (EF)” for “posterior wall thickness (PW) measured at end-diastole (d)”, “fractional shortening (FS)” for “at end-systole (s) in millimeters (mm)”, “fraction. LVEF (%)” for “fraction LVPWd”, “LVFS (%)” for “LVPWs”, “injection. LVEF and LVFS are clinically utilized measures of cardiac function.” for “injection.”

[6] = tested on: myocardial ischemia/reperfusion (MI/R) injury; test: Circulating cardiac troponin I in MI/R murine model; details: 50 μg/kg (p<0.05) or 100 μg/kg (p<0.01), blood at 4 h of reperfusion
Procedure: Blood was collected at 4 hours of reperfusion, and circulating cardiac troponin I levels were measured.
Surgical occlusion of the left coronary artery (LCA), infarct size determination, and troponin I (TnI) measurements were performed as previously described. ^1C57BL6/J male mice (10-12 weeks of age) were anesthetized using pentobarbital (50 mg/kg) and ketamine (60 mg/kg) and maintained under anesthesia throughout the procedure with additional administration of pentobarbital (50 mg/kg). […] A hair removal compound was used to remove the hair on the chest of mice. The area was then cleaned using betadine and alcohol wipes alternating 3 times. The chest was opened with via a median sternotomy and the exposed ribs, muscle, and tissues were cauterized to prevent bleeding. The LCA was visualized using a dissection microscope with a fiber optic light ring, and using a 7-0 silk suture, a 3-5 mm piece of PE-10 tubing was secured over the LCA, occluding the artery. Mice were subjected to 45 min of myocardial ischemia followed by reperfusion. At the time of reperfusion, an injection of vehicle (saline), JK-1 (50 μg/kg and 100 μg/kg), or JK-2 (50 μg/kg and 100 μg/kg) was given i.c. The chest was closed in layers, closing the muscle layer first, then the skin. Mice were removed from ventilation once pedal reflex returned and it was determined that respiration was spontaneous. Mice were placed in a recovery cage and supplied with 100% O2 via a nose cone. Reperfusion was allowed for 24 h, and blood samples for TnI measurements were taken at 4 h after time of reperfusion.
Blood samples were collected via a tail vein at 4 h of reperfusion. Cardiac troponin I level was measured in serum using the Life Diagnostic high sensitivity mouse cardiac troponin I ELISA kit following the manufacturer's instructions.

[7] = Circulating free H2S level, gas chromatography and chemiluminescence; type: in vivo, mice; details: plasma, 15 minutes after administration, 50 μg/kg (p<0.05) or 100 μg/kg (p<0.001)
Procedure: FIG. 5. […] Blood was collected 15 minutes after the administration of JK-2. Circulating free H2S levels were measured from plasma samples using gas chromatography and chemiluminesence methods.

[8] = 100 μM donor, PBS buffer pH 5.0, 6.0, 7.4, 8.0, time-dependent

OO [H2O2, reference compound]
H2O2 median lethal concentration ([1]; H9c2 cells, A/R treatment together with H2O2 (100-400 μM)): approximately 400 μM

O=C([O-])C1CCCN1P([O-])(=S)c1ccccc1.[Li+].[Li+] (centres unmarked) [JK-5]
H2S release ([2]; pH 5): not to release H2S at all

O=C(O)CNP(O)(=S)c1ccccc1 (centres unmarked) [JK-1]
H2S release [2, 8]: much-enhanced H2S releasing ability
H2S release under weak acidic pH [2]: only released H2S under weak acidic pH
H2S release under neutral and weak basic pH [2]: barely detectable H2S
H2S production in cells (WSP-5 fluorescence) [3]: much weaker fluorescence
protection against A/R-induced cellular damage (cell viability) [1]: significant attenuation of A/R induced damage
myocardial infarct size [4]: significantly reduced
reduction of infarct size per area-at-risk (INF/AAR) [4]: 43% and 64%
interventricular septum thickness (IVSd, IVSs) [5]: significantly preserved IVSd and IVSs
left ventricular dilatation (LVEDD, LVESD) [5]: significantly reduced left ventricular dilatation
left ventricular ejection fraction (LVEF) and fractional shortening (LVFS) [5]: significantly preserved both LVEF and LVFS
left ventricular posterior wall thickness (LVPWd, LVPWs) [5]: significantly preserved left ventricular wall thickness
circulating cardiac troponin I level [6]: significantly lowered; also recorded: significantly reduced

O=C([O-])C(Cc1ccccc1)NP([O-])(=S)c1ccccc1.[Li+].[Li+] (centres unmarked) [JK-2]
H2S release [2, 8]: much-enhanced H2S releasing ability
H2S release under weak acidic pH [2]: much faster release
H2S release under neutral and weak basic pH [2]: slow and sustained H2S release
H2S production in cells (WSP-5 fluorescence) [3]: strong fluorescence
protection against A/R-induced cellular damage (cell viability) [1]: significant attenuation of A/R induced damage
myocardial infarct size [4]: significantly reduced
reduction of infarct size per area-at-risk (INF/AAR) [4]: 55% and 56%
circulating free H2S level [7]: significant increase; also recorded: significantly higher
circulating cardiac troponin I level [6]: significantly lowered; also recorded: significantly reduced
